Assay results published in patent US5854280A, “Antifungal sordaridin derivatives” (Glaxo Wellcome S.A., priority 1994, dated 1998).
≈ marks a conversion by molar mass, not a printed value.

What was measured:
Test in all cases: in vitro antifungal MIC, two-fold serial dilution
[1] = system: C. tropicalis 2808E; format: cell-based, Candida tropicalis
Procedure: (§1) The in vitro evaluation of the anti-fungal activity of compounds of the invention was performed on liquid or solid medium by the anti-fungal two-fold serial dilution technique of determining the minimum inhibitory concentration (MIC) of anti-fungal agent that inhibited development of growth after 24 to 48 hours of incubation at 37° C. In practice, a series of agar plates or broth microdilution panels containing two-fold dilutions of anti-fungal agent tested were inoculated with a standard culture of a clinically relevant pathogen, for example, Candida albicans. The agar plates or broth microdulution panels were then examined for the presence or absence of growth of the fungus and the appropriate MIC values were noted.
(§2) Compounds of formula (I) have been tested for anti fungal activity in a standard in vitro screen and the minimum inhibiting concentration (MIC; μg/ml) determined for each compound against a variety of clinically relevant pathogens.

[2] = system: C. neoformans 2867E; format: cell-based, Cryptococcus neoformans
Procedure: as §1, §2

[3] = system: C. psuedotropicalis 2371E; format: cell-based, Candida pseudotropicalis
Procedure: as §1, §2

[4] = system: C. aibicans 2402E; format: cell-based, Candida albicans
Procedure: as §1, §2

[5] = system: C. albicans 4711; format: cell-based, Candida albicans
Procedure: as §1, §2

[6] = system: C. albicans 1208E; format: cell-based, Candida albicans
Procedure: as §1, §2

[7] = system: C. albicans 2005E; format: cell-based, Candida albicans
Procedure: as §1, §2

[8] = system: C. glabrata 2375E; format: cell-based, Candida glabrata
Procedure: as §1, §2

[9] = system: C. glabrata 2376E; format: cell-based, Candida glabrata
Procedure: as §1, §2

Compound | MIC (minimum inhibiting concentration) [1] [µg/mL] | MIC (minimum inhibiting concentration) [2] [µg/mL] | MIC (minimum inhibiting concentration) [3] [µg/mL] | MIC (minimum inhibiting concentration) [4] [µg/mL] | MIC (minimum inhibiting concentration) [5] [µg/mL] | MIC (minimum inhibiting concentration) [6] [µg/mL] | MIC (minimum inhibiting concentration) [7] [µg/mL] | MIC (minimum inhibiting concentration) [8] [µg/mL] | MIC (minimum inhibiting concentration) [9] [µg/mL]
CC(C)C1=CC2CC3(C=O)C4CCC(C)C4CC2(COC2OC(C)C4OC(C)(C)OC4C2O)C13C(=O)O [Example 1, [1R-(1α,3aβ,4β,4aβ,7β,7aα,8aβ)]8a-[(6-Deoxy-3,4-O-isopropylidene-β-D-altropyranosyloxy)methyl]-4-formyl-4,4a,5,6,7,7a,8,8a-octahydro-7-methyl-3-(1-methylethyl)-1,4-methano-s-indacene-3a(1H)-carboxylic acid] | 1.000 (≈ 1.93 µM) | > 125 | 0.060 (≈ 0.116 µM) | 0.500 (≈ 0.964 µM) | 0.280 (≈ 0.54 µM) | 0.500 (≈ 0.964 µM) | 0.120 (≈ 0.231 µM) | 31.00 (≈ 59.8 µM) | 31.00 (≈ 59.8 µM)
CC(C)C1=CC2CC3(C=O)C4CCC(C)C4CC2(COC2CC4OC(C)(C)OC4C(C)O2)C13C(=O)O [Example 6, [1R-(1α,3aβ,4β,4aβ,7β,7aα,8aβ)]8a-[(2,6-Dideoxy-3,4-O-isopropylidene-β-D-allopyranosyloxy)methyl]-4-formyl-4,4a,5,6,7,7a,8,8a-octahydro-7-methyl-3-(1-methylethyl)-4-methano-s-indacene-3a(1H)-carboxylic acid] | 0.120 (≈ 0.239 µM) | 8.00 (≈ 15.9 µM) | 0.004 (≈ 0.00796 µM) | 0.008 (≈ 0.0159 µM) | 0.004 (≈ 0.00796 µM) | 0.008 (≈ 0.0159 µM) | 0.001 (≈ 0.00199 µM) | 31.00 (≈ 61.7 µM) | 31.00 (≈ 61.7 µM)
CC(C)C1=CC2CC3(C=O)C4CCC(C)C4CC2(COC2CC4OCOC4C(C)O2)C13C(=O)[O-].[Na+] (stereo not drawn) [Example 13] | 0.120 | 0.500 | 0.008 | 0.015 | 0.015 | 0.015 | 0.008 | 8.00 | 8.00
CC(C)C1=CC2CC3(C=O)C4CCC(C)C4CC2(COC2CC4OCC(C)C4C(C)O2)C13C(=O)O [Example 16, [1R-(1α,3aβ,4β,4aβ,7β,7aα,8aβ)]8a-[[1S,4S,6R,8R]-2,7-Dioxa-4,6-dimethyl-cis-bicyclo[3.4.0]-non-8-yl-oxy-methyl]-4-formyl-4,4a,5,6,7,7a,8,8a-octahydro-7-methyl-3-(1-methylethyl)-1,4-methano-s-indacene-3a(1H)-carboxylic acid] | 0.008 (≈ 0.0164 µM) | 1.00 (≈ 2.05 µM) | < 0.001 | 0.001 (≈ 0.00205 µM) | 0.001 (≈ 0.00205 µM) | 0.001 (≈ 0.00205 µM) | 0.001 (≈ 0.00205 µM) | 8.00 (≈ 16.4 µM) | 8.00 (≈ 16.4 µM)
CC(C)C1=CC2CC3(C=O)C4CCC(C)C4CC2(COC2CC4C(C)COC4C(C)O2)C13C(=O)[O-].[Na+] [Example 20, [1R-(1α,3aβ,4β,4aβ,7β,7aα,8aβ)]8a-[[1S,4R,7R,9R]-2,8-Dioxa-4,9-dimethyl-cis-bicyclo[3.4.0]-7-yl-oxy-methyl]-4-formyl-4,4a,5,6,7,7a,8,8a-octahydro-7-methyl-3-(1-methylethyl)-1,4-methano-s-indacene-3a(1H)-carboxylic acid, sodium salt] | 0.008 | 0.250 | 0.004 | ≤ 0.001 | ≤ 0.001 | ≤ 0.001 | ≤ 0.001 | 0.500 | 0.500
C=C1COC2C(C)OC(OCC34CC5C(C)CCC5C5(C=O)CC3C=C(C(C)C)C54C(=O)[O-])CC12.[Na+] [Example 34, [1R-(1α,3aβ,4β,4aβ,7β,7aα,8aβ)]8a-[[1S,7R,9R]-2,8-Dioxa-9-methyl-4-methylene-cis-bicyclo[3.4.0]-non-7-yl-oxy-methyl]-4-formyl-4,4a, 5,6,7,7a,8,8a-octahydro-7-methyl-3-(1-methylethyl)-1,4-methano-s-indacene-3a(1H)-carboxylic acid, sodium salt] | 0.150 | ≤ 0.250 | ≤ 0.001 | 0.001 | 0.001 | 0.001 | 0.001 | 1.000 | 1.000
CC(C)C1=CC2CC3(C=O)C4CCC(C)C4CC2(COC2CC4C(=O)COC4C(C)O2)C13C(=O)O [Example 37, [1R-(1α,3aβ,4β,4aβ,7β,7aα,8aβ)]8a-[[1S,7R,9R]-2,8-Dioxa-9-methyl-4-oxo-cis-bicyclo[3.4.0]-non-7-yl-oxy-methyl]-4-formyl4,4a,5,6,7,7a,8,8a-octahydro-7-methyl-3-(1-methyl-ethyl)-1,4-methano-s-indacene-3a(1H)-carboxylic acid] | 0.500 (≈ 1.03 µM) | ≤ 0.250 | 0.060 (≈ 0.123 µM) | 0.060 (≈ 0.123 µM) | 0.030 (≈ 0.0617 µM) | 0.060 (≈ 0.123 µM) | 0.001 (≈ 0.00206 µM) | 4.00 (≈ 8.22 µM) | 6.00 (≈ 12.3 µM)
CC(C)C1=CC2CC3(C=O)C4CCC(C)C4CC2(COC2CC4=CCOC4C(C)O2)C13C(=O)O [Example 43, [1R-(1α,3aβ,4β,4aβ,7β,7aα,8aβ)]8a-[(1S,7R,9R)-2,8-Dioxa-9-methyl-bicyclo[3,4,0]-non-4-ene-7-yl-oxymethyl]-4-formyl-4,4a,5,6,7,7a,8,8a-octahydro-7-methyl-3-(1-methylethyl)-1,4-methano-s-indacene-3a(1H)-carboxylic acid] | 0.500 (≈ 1.06 µM) | 2.00 (≈ 4.25 µM) | < 0.001 | 0.001 (≈ 0.00212 µM) | 0.001 (≈ 0.00212 µM) | 0.001 (≈ 0.00212 µM) | 0.001 (≈ 0.00212 µM) | 4.00 (≈ 8.5 µM) | 4.00 (≈ 8.5 µM)
COC1C(C)OC(OCC23CC4C(C)CCC4C4(C=O)CC2C=C(C(C)C)C43C(=O)O)C2SC12 [Example 51, [1R-(1α,3aβ,4β,4aβ,7β,7aα,8aβ)]8a-[(2,3-Epithio-4-O-methyl-2,3,6-trideoxy-β-D-mannopyranosyloxy)methyl]-4-formyl-4,4a,5,6,7,7a,8,8a-octahydro-7-methyl-3-(1-methylethyl)-1,4-methano-s-indacene-3a(1H)-carboxylic acid] | 0.500 (≈ 1.02 µM) | ≤ 125 | 0.008 (≈ 0.0163 µM) | 0.120 (≈ 0.245 µM) | 0.120 (≈ 0.245 µM) | 0.120 (≈ 0.245 µM) | 0.030 (≈ 0.0611 µM) | 16.00 (≈ 32.6 µM) | 16.00 (≈ 32.6 µM)
CCCOC1C(C)OC(OCC23CC4C(C)CCC4C4(C=O)CC2C=C(C(C)C)C43C(=O)O)C2OC12 [Example 52, [1R-(1α,3aβ,4β,4aβ,7β,7aα,8aβ)]8a-[(2,3-Anhydro-6-deoxy-4-O-propyl-β-D-mannopyranosyloxy)methyl]-4-formyl-4,4a,5,6,7,7a,8,8a-octahydro-7-methyl-3-(1-methylethyl)-1,4-methano-s-indacene-3a(1H)-carboxylic acid] | 0.030 (≈ 0.0597 µM) | 1.00 (≈ 1.99 µM) | 0.001 (≈ 0.00199 µM) | 0.008 (≈ 0.0159 µM) | 0.004 (≈ 0.00796 µM) | 0.004 (≈ 0.00796 µM) | 0.001 (≈ 0.00199 µM) | 8.00 (≈ 15.9 µM) | 8.00 (≈ 15.9 µM)
